In ChEMBL document CHEMBL1201862, “PubChem BioAssay data set” (2004):
Several values for one entry are separate records, joined by “and”; a condition that tells them apart may be missing. Identical values can stand only once.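 Grown in 96-well plates, cells were treated for 48 hours with each compound at five concentrations. Insufficient inhibition: endpoint recorded as highest concentration tested. Here, GI50 denotes the concentration required for 50% inhibition of growth.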 Activity calls are given as the source filed them. Cut-off read from the data, not from the text of the source: active = GI50 up to about 1.1 µM and inactive = higher.

Legend:
Assay in all cases: NCI anticancer screen, dose series, 48 h
NCI-H460 = tested on: NCI-H460
NCI-H522 = tested on: NCI-H522
U-251 = tested on: U-251
Malme-3M = tested on: Malme-3M
Hs-578T = tested on: Hs-578T
COLO 205 = tested on: COLO 205
HCT-15 = tested on: HCT-15
BT-549 = tested on: BT-549
MOLT-4 = tested on: MOLT-4
A549 = tested on: A549
SK-MEL-5 = tested on: SK-MEL-5
NCI-H23 = tested on: NCI-H23
UACC-62 = tested on: UACC-62
UACC-257 = tested on: UACC-257
HOP-92 = tested on: HOP-92
OVCAR-3 = tested on: OVCAR-3
OVCAR-8 = tested on: OVCAR-8
UO-31 = tested on: UO-31
MDA-N = tested on: MDA-N
SNB-75 = tested on: SNB-75

Row | Compound | GI50 (NCI-H460) | GI50 (NCI-H522) | GI50 (U-251) | GI50 (Malme-3M) | GI50 (Hs-578T) | GI50 (COLO 205) | GI50 (HCT-15) | GI50 (BT-549) | GI50 (MOLT-4) | GI50 (A549) | GI50 (SK-MEL-5) | GI50 (NCI-H23) | GI50 (UACC-62) | GI50 (UACC-257) | GI50 (HOP-92) | GI50 (OVCAR-3) | GI50 (OVCAR-8) | GI50 (UO-31) | GI50 (MDA-N) | GI50 (SNB-75)
1 | COc1cc([C@H]2CC(=O)C[C@H](c3cc(OC)c(OC)c(OC)c3)C23C(=O)c2ccccc2C3=O)cc(OC)c1OC | 91.2 µM (inactive) | 25 µM (inactive) | 41.3 µM (inactive) | > 100 µM (inactive) | 46.6 µM (inactive) | > 100 µM (inactive) | > 100 µM | 91.4 µM (inactive) | 29.1 µM (inactive) | > 100 µM (inactive) | > 100 µM (inactive) | > 100 µM (inactive) | 43.1 µM (inactive) | > 100 µM (inactive) | 33.6 µM (inactive) | 57 µM (inactive) | 40 µM (inactive) | > 100 µM (inactive) | – | –
2 | CC(=O)OCC1OC(n2c(C)c(C)cc(C#N)c2=S)C(OC(C)=O)C(OC(C)=O)C1OC(C)=O (stereo not drawn) | > 100 µM (inactive) | > 100 µM (inactive) and 52.4 µM (inactive) | > 100 µM (inactive) | > 100 µM (inactive) | > 100 µM (inactive) | – | > 100 µM | > 100 µM (inactive) | > 100 µM (inactive) | > 100 µM (inactive) | > 100 µM (inactive) | > 100 µM (inactive) | 65.2 µM (inactive) | > 100 µM (inactive) | – | > 100 µM (inactive) | > 100 µM (inactive) | > 100 µM (inactive) | > 100 µM (inactive) | –
3 | COc1ccccc1C(C1=C(O)COC1=O)c1cc2c(cc1OC(C)=O)OCO2 (stereo not drawn) | > 100 µM (inactive) | – | > 100 µM (inactive) | > 100 µM (inactive) | > 100 µM (inactive) | > 100 µM (inactive) | > 100 µM | > 100 µM (inactive) | > 100 µM (inactive) | > 100 µM (inactive) | > 100 µM (inactive) | > 100 µM (inactive) | > 100 µM (inactive) | > 100 µM (inactive) | – | > 100 µM (inactive) | > 100 µM (inactive) | > 100 µM (inactive) | > 100 µM (inactive) | > 100 µM (inactive)
4 | C=Cn1c([N+](=O)[O-])cnc1/C=C/c1ccc(C(=O)OCCN2CCOCC2)cc1 | > 100 µM (inactive) | > 100 µM (inactive) | > 100 µM (inactive) | 61 µM (inactive) | 88.1 µM (inactive) | > 100 µM (inactive) | > 100 µM | > 100 µM (inactive) | 38 µM (inactive) | > 100 µM (inactive) | 51.9 µM (inactive) | > 100 µM (inactive) | > 100 µM (inactive) | > 100 µM (inactive) | > 100 µM (inactive) | > 100 µM (inactive) | > 100 µM (inactive) | – | – | > 100 µM (inactive)
5 | Cc1ccc(S(=O)(=O)N2CCN3C(=O)c4ccccc4C32c2ccc(F)cc2)cc1 (stereo not drawn) | 67.6 µM (inactive) | 55.8 µM (inactive) | > 100 µM (inactive) | > 100 µM (inactive) | > 100 µM (inactive) | 34.9 µM (inactive) | 80.9 µM | > 100 µM (inactive) | 23.8 µM (inactive) | 51.4 µM (inactive) | 17.7 µM (inactive) | 97.7 µM (inactive) | 44.9 µM (inactive) | 56 µM (inactive) | – | > 100 µM (inactive) | > 100 µM (inactive) | 44.5 µM (inactive) | 27.5 µM (inactive) | 72.1 µM (inactive)
6 | Cn1ccc2c(c1=O)C(=O)OC2(C)C [CERPEGIN] | > 100 µM (inactive) | – | > 100 µM (inactive) | 65.6 µM (inactive) | > 100 µM (inactive) | > 100 µM (inactive) | > 100 µM | > 100 µM (inactive) | > 100 µM (inactive) | > 100 µM (inactive) | > 100 µM (inactive) | > 100 µM (inactive) | > 100 µM (inactive) | > 100 µM (inactive) | – | > 100 µM (inactive) | > 100 µM (inactive) | 59.2 µM (inactive) | > 100 µM (inactive) | > 100 µM (inactive)
